Assay results: publication PMC7554340, “A Novel Dual-Targeted α-Helical Peptide With Potent Antifungal Activity Against Fluconazole-Resistant Candida albicans Clinical Isolates” (Frontiers in Microbiology, 2020)
No end group written: not given here.

Key:
C. albicans sp3902 = details: sp3902, 48 h; for MIC: pH 7
C. albicans sp3876 = details: sp3876, 48 h; for MIC: pH 7
C. albicans 14936 = details: 14936, 48 h; for MIC: pH 7
C. albicans 17546 = details: 17546, 48 h; for MIC: pH 7
C. albicans 56214 = details: 56214, 48 h; for MIC: pH 7
[1] = tested on: C. parapsilosis cgmcc 2.3989; test: Antifungal activity assay (broth microdilution, MIC/MFC); type: cell-based, Candida parapsilosis; details: for MFC: 50 μl of MIC wells plated on YPD agar, 28°C, 48 h, lowest concentration that completely killed fungal cells, consensus of at least three independent experiments; for MIC: cgmcc 2.3989, 48 h, pH 7
C. albicans sp3931 = details: sp3931, 48 h; for MIC: pH 7
[2] = tested on: C. tropicalis cgmcc 2.1975; test: Antifungal activity assay (broth microdilution, MIC/MFC); type: cell-based, Candida tropicalis; details: for MFC: 50 μl of MIC wells plated on YPD agar, 28°C, 48 h, lowest concentration that completely killed fungal cells, consensus of at least three independent experiments; for MIC: cgmcc 2.1975, 48 h, pH 7
C. albicans cgmcc 2.2086 = test: as above; type: cell-based, Candida albicans; details: for MFC: 50 μl of MIC wells plated on YPD agar, 28°C, 48 h, lowest concentration that completely killed fungal cells, consensus of at least three independent experiments; for MIC: cgmcc 2.2086, 48 h, pH 7
C. albicans 56452 = details: 56452, 48 h; for MIC: pH 7
C. albicans 58288 = details: 58288, 48 h; for MIC: pH 7
C. albicans sp3903 = details: sp3903, 48 h; for MIC: pH 7
IPEC-J2 cells = details: IPEC-J2 cells, MTT, 24 h treatment, 1-64 μM; probit regression
IPEC-J2 and PMEC cells = test: Cytotoxicity MTT assay, statements for both cell lines; details: 24 h
human erythrocytes = details: for HC10: red cells of human, 1 h
PMEC cells = details: PMEC cells, MTT, 24 h treatment, 1-64 μM; probit regression

Substance	MFC (C. albicans sp3902) [µM]	MIC (C. albicans sp3902) [µM]	MFC (C. albicans sp3876) [µM]	MIC (C. albicans sp3876) [µM]	MFC (C. albicans 14936) [µM]	MIC (C. albicans 14936) [µM]	MFC (C. albicans 17546) [µM]	MIC (C. albicans 17546) [µM]	MFC (C. albicans 56214) [µM]	MIC (C. albicans 56214) [µM]	MFC [1] [µM]	MIC [1] [µM]	MFC (C. albicans sp3931) [µM]	MIC (C. albicans sp3931) [µM]	MFC [2] [µM]	MIC [2] [µM]	MFC (C. albicans cgmcc 2.2086) [µM]	MIC (C. albicans cgmcc 2.2086) [µM]	MFC (C. albicans 56452) [µM]	MIC (C. albicans 56452) [µM]	also measured
KIGKVLLVKGIK-NH2 [KV2]	>64	>64	>64	>64	>64	>64	>64	>64	>64	>64	>64	>64	>64	>64	>64	>64	>64	>64	>64	>64	MFC (C. albicans 58288): >64 µM; MIC (C. albicans 58288): >64 µM; MFC (C. albicans sp3903): >64 µM; MIC (C. albicans sp3903): >64 µM
KIGKWLLWKGIKKIGKWL-NH2 [KW3]	2	2	8	8	8	8	8	8	8	4	8	8	8	8	2	2	8	4	4	4	IC50 (IPEC-J2 cells): 6.84 µM; concentration at which statistically significant cytotoxic effects started (IPEC-J2 and PMEC cells): 4 µM; hemolytic activity (in words) (human erythrocytes): strong hemolytic activities; HC10 (human erythrocytes): 2.69 µM; IC50 (PMEC cells): 10.3 µM; MFC (C. albicans 58288): 8 µM; MIC (C. albicans 58288): 8 µM; MFC (C. albicans sp3903): 8 µM; MIC (C. albicans sp3903): 4 µM
RIGRVLLVRGIRRIGRVL-NH2 [RV3]	32	32	32	32	32	32	64	64	32	16	32	16	32	32	16	8	32	32	16	16	IC50 (IPEC-J2 cells): > 64 µM; cytotoxic effects (in words) (IPEC-J2 and PMEC cells; 1-64 μM): negligible cytotoxic effects; HC10 (human erythrocytes): >64 µM; IC50 (PMEC cells): > 64 µM; MFC (C. albicans 58288): 32 µM; MIC (C. albicans 58288): 32 µM; MFC (C. albicans sp3903): 32 µM; MIC (C. albicans sp3903): 32 µM
RIGRWLLWRGIRRIGRWL-NH2 [RW3]	2	2	4	4	4	4	8	8	2	2	4	4	4	4	2	2	4	4	4	4	IC50 (IPEC-J2 cells): 14.8 µM; concentration at which statistically significant cytotoxic effects started (IPEC-J2 and PMEC cells): 8 µM; hemolytic activity (in words) (human erythrocytes): strong hemolytic activities; HC10 (human erythrocytes): 3.81 µM; IC50 (PMEC cells): 22.3 µM; MFC (C. albicans 58288): 8 µM; MIC (C. albicans 58288): 4 µM; MFC (C. albicans sp3903): 8 µM; MIC (C. albicans sp3903): 2 µM
